What was measured:
[1] = tested on: Ba/F3 cells expressing OCLN-RASGRF1; assay: Cell viability (Cell Titer-Glo), Ba/F3 cells expressing OCLN-RASGRF1; type: cell-based
Method: Ba F3 Transformation Assays. Ba/F3 cells were maintained in RPMI 1640 (Gibco) with heat-inactivated 10% fetal bovine serum (Gibco) and penicillin (100 units/mL)/streptomycin (100 μg/mL; Gibco) and 1 ng/mL interleukin-3 (IL-3; Gibco). cDNAs (GFP or OCLN-RASGRF1) in pLX307 were introduced into Ba/F3 cells via lentiviral transduction with 8 μg/mL polybrene and centrifugation at 2250 rpm at 37 degrees C. for 30 minutes. 24 hours later, transduced cells were selected with 1 μg/mL puromycin for at least 5 days.
(§1) Cell Viability Assays and RASGRF1 knockdown. Ba/F3 cells or PaCaDD137 cells were seeded in 96-well microtiter plates. Drug or drug vehicle was added on the same day (for Ba/F3 cells) or 24 hours after seeding (for PaCaDD137 cells). Following 4-5 days of drug exposure, cell viability was determined using the Cell Titer-Glo luminescent assay (Promega) according to the manufacturer's instructions. Luminescence was measured with a Spectramax M3 plate reader (Molecular Devices). Data analysis was performed using GraphPad Prism software.

PaCaDD137 cells = assay: Cell viability (Cell Titer-Glo), PaCaDD137 cells; type: cell-based
Method: as §1, with “Following 4-5 days of drug exposure, cell viability was determined using the Cell Titer-Glo luminescent assay (Promega) according to the manufacturer's instructions.” left out

IC50 ([1]; Mus musculus, BaF3, 96 h, 4 days exposure, Cell Titer-Glo, read-out: half maximal inhibitory concentration (IC50), cell viability) [nM]	SMILES	activity of addition of pictilisib to trametinib compared to trametinib alone ([1]; 100 or 500 nM pictilisib, 4 days)	sensitivity (cell viability) ([1]; 4 days, Cell Titer-Glo)	activity of addition of pictilisib to trametinib compared to trametinib alone (PaCaDD137 cells; 100 or 500 nM pictilisib, 6 days)	sensitivity (cell viability) (PaCaDD137 cells; Cell Titer-Glo)	IC50 (PaCaDD137 cells; 120 h, 5 days, Cell Titer-Glo) [nM]
	CS(=O)(=O)N1CCN(Cc2cc3nc(-c4cccc5[nH]ncc45)nc(N4CCOCC4)c3s2)CC1 [pictilisib]	only a modest increase in activity	only a modest increase in sensitivity	only a modest increase in activity	not	
~0.15	CC(=O)Nc1cccc(-n2c(=O)n(C3CC3)c(=O)c3c(Nc4ccc(I)cc4F)n(C)c(=O)c(C)c32)c1 [trametinib]					~20
